Test results from PubChem BioAssay (NCI).
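In this assay, cells in 96-well plates receive the compound at five concentrations for 48 hours. Endpoints are linearly interpolated between the surrounding concentrations. TGI: total growth inhibition.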

Legend:
Test in all cases: NCI tumour cell line growth inhibition, 48 h
MOLT-4 leukemia = system: MOLT-4 leukemia
MALME-3M melanoma = system: MALME-3M melanoma
UO-31 renal = system: UO-31 renal
HOP-92 NSCLC = system: HOP-92 NSCLC
SN12C renal = system: SN12C renal
NCI-H226 lung = system: NCI-H226 lung
EKVX NSCLC = system: EKVX NSCLC
SF-268 CNS = system: SF-268 CNS
SK-MEL-2 melanoma = system: SK-MEL-2 melanoma
LOX IMVI melanoma = system: LOX IMVI melanoma
SK-MEL-5 melanoma = system: SK-MEL-5 melanoma
HT29 colon = system: HT29 colon
XF 498 CNS = system: XF 498 CNS
NCI-H23 lung = system: NCI-H23 lung
SK-MEL-28 melanoma = system: SK-MEL-28 melanoma
OVCAR-4 ovarian = system: OVCAR-4 ovarian
HL-60(TB) leukemia = system: HL-60(TB) leukemia
RPMI-8226 leukemia = system: RPMI-8226 leukemia
SF-295 CNS = system: SF-295 CNS
CCRF-CEM leukemia = system: CCRF-CEM leukemia
NCI-H460 lung = system: NCI-H460 lung
DLD-1 colon = system: DLD-1 colon
KM12 colon = system: KM12 colon
CAKI-1 renal = system: CAKI-1 renal
786-0 renal = system: 786-0 renal
KM20L2 colon = system: KM20L2 colon
SW-620 colon = system: SW-620 colon
OVCAR-5 ovarian = system: OVCAR-5 ovarian
A549 NSCLC = system: A549 NSCLC
SF-539 CNS = system: SF-539 CNS
K-562 leukemia = system: K-562 leukemia
TK-10 renal = system: TK-10 renal
M14 melanoma = system: M14 melanoma
UACC-62 melanoma = system: UACC-62 melanoma
HOP-62 NSCLC = system: HOP-62 NSCLC
IGROV1 ovarian = system: IGROV1 ovarian
SK-OV-3 ovarian = system: SK-OV-3 ovarian
SNB-75 CNS = system: SNB-75 CNS
OVCAR-3 ovarian = system: OVCAR-3 ovarian
A498 renal = system: A498 renal
LXFL 529 NSCLC = system: LXFL 529 NSCLC
COLO 205 colon = system: COLO 205 colon
DMS 114 small cell lung = system: DMS 114 small cell lung
ACHN renal = system: ACHN renal
NCI-H522 lung = system: NCI-H522 lung
RXF 393 renal = system: RXF 393 renal
SNB-78 CNS = system: SNB-78 CNS
U251 CNS = system: U251 CNS
UACC-257 melanoma = system: UACC-257 melanoma
OVCAR-8 ovarian = system: OVCAR-8 ovarian
HCT-15 colon = system: HCT-15 colon
M19-MEL melanoma = system: M19-MEL melanoma
HCC-2998 colon = system: HCC-2998 colon
SR leukemia = system: SR leukemia
DMS 273 small cell lung = system: DMS 273 small cell lung
HOP-18 NSCLC = system: HOP-18 NSCLC
RXF-631 renal = system: RXF-631 renal
SNB-19 CNS = system: SNB-19 CNS
HCT-116 colon = system: HCT-116 colon

SMILES: O=C1CCC2(c3ccc(Cl)cc3)Nc3ncccc3N12 (stereo not given)
- TGI (MOLT-4 leukemia): > 100 µM
- TGI (MALME-3M melanoma): > 100 µM
- TGI (UO-31 renal): > 100 µM
- TGI (HOP-92 NSCLC): > 100 µM
- TGI (SN12C renal): > 100 µM
- TGI (NCI-H226 lung): > 100 µM
- TGI (EKVX NSCLC): > 100 µM
- TGI (SF-268 CNS): > 100 µM
- TGI (SK-MEL-2 melanoma): > 100 µM
- TGI (LOX IMVI melanoma): > 100 µM
- TGI (SK-MEL-5 melanoma): > 100 µM
- TGI (HT29 colon): > 100 µM
- TGI (XF 498 CNS): > 100 µM
- TGI (NCI-H23 lung): > 100 µM
- TGI (SK-MEL-28 melanoma): > 100 µM
- TGI (OVCAR-4 ovarian): > 100 µM
- TGI (HL-60(TB) leukemia): > 100 µM
- TGI (RPMI-8226 leukemia): > 100 µM
- TGI (SF-295 CNS): > 100 µM
- TGI (CCRF-CEM leukemia): > 100 µM
- TGI (NCI-H460 lung): > 100 µM
- TGI (DLD-1 colon): > 100 µM
- TGI (KM12 colon): > 100 µM
- TGI (CAKI-1 renal): > 100 µM
- TGI (786-0 renal): > 100 µM
- TGI (KM20L2 colon): > 100 µM
- TGI (SW-620 colon): > 100 µM
- TGI (OVCAR-5 ovarian): > 100 µM
- TGI (A549 NSCLC): > 100 µM
- TGI (SF-539 CNS): > 100 µM
- TGI (K-562 leukemia): > 100 µM
- TGI (TK-10 renal): > 100 µM
- TGI (M14 melanoma): > 100 µM
- TGI (UACC-62 melanoma): > 100 µM
- TGI (HOP-62 NSCLC): > 100 µM
- TGI (IGROV1 ovarian): > 100 µM
- TGI (SK-OV-3 ovarian): > 100 µM
- TGI (SNB-75 CNS): > 100 µM
- TGI (OVCAR-3 ovarian): > 100 µM
- TGI (A498 renal): > 100 µM
- TGI (LXFL 529 NSCLC): > 100 µM
- TGI (COLO 205 colon): > 100 µM
- TGI (DMS 114 small cell lung): > 100 µM
- TGI (ACHN renal): > 100 µM
- TGI (NCI-H522 lung): > 100 µM
- TGI (RXF 393 renal): > 100 µM
- TGI (SNB-78 CNS): > 100 µM
- TGI (U251 CNS): > 100 µM
- TGI (UACC-257 melanoma): > 100 µM
- TGI (OVCAR-8 ovarian): > 100 µM
- TGI (HCT-15 colon): > 100 µM
- TGI (M19-MEL melanoma): > 100 µM
- TGI (HCC-2998 colon): > 100 µM

SMILES: O=C1c2cccc3c2C(=O)c2c(cccc21)OCCOCCOCCOCCO3
- TGI (MOLT-4 leukemia): > 100 µM
- TGI (MALME-3M melanoma): > 100 µM
- TGI (UO-31 renal): 99.8 µM
- TGI (SN12C renal): > 100 µM
- TGI (NCI-H226 lung): > 100 µM
- TGI (EKVX NSCLC): > 100 µM
- TGI (SF-268 CNS): > 100 µM
- TGI (SK-MEL-2 melanoma): > 100 µM
- TGI (LOX IMVI melanoma): > 100 µM
- TGI (SK-MEL-5 melanoma): > 100 µM
- TGI (HT29 colon): > 100 µM
- TGI (NCI-H23 lung): > 100 µM
- TGI (OVCAR-4 ovarian): > 100 µM
- TGI (HL-60(TB) leukemia): > 100 µM
- TGI (RPMI-8226 leukemia): > 100 µM
- TGI (SF-295 CNS): > 100 µM
- TGI (CCRF-CEM leukemia): > 100 µM
- TGI (NCI-H460 lung): > 100 µM
- TGI (DLD-1 colon): > 100 µM
- TGI (CAKI-1 renal): > 100 µM
- TGI (SR leukemia): 58.9 µM
- TGI (DMS 273 small cell lung): > 100 µM
- TGI (KM20L2 colon): > 100 µM
- TGI (SW-620 colon): > 100 µM
- TGI (HOP-18 NSCLC): > 100 µM
- TGI (OVCAR-5 ovarian): > 100 µM
- TGI (A549 NSCLC): > 100 µM
- TGI (SF-539 CNS): > 100 µM
- TGI (K-562 leukemia): > 100 µM
- TGI (TK-10 renal): > 100 µM
- TGI (M14 melanoma): > 100 µM
- TGI (UACC-62 melanoma): > 100 µM
- TGI (HOP-62 NSCLC): > 100 µM
- TGI (IGROV1 ovarian): > 100 µM
- TGI (RXF-631 renal): > 100 µM
- TGI (SK-OV-3 ovarian): > 100 µM
- TGI (SNB-75 CNS): > 100 µM
- TGI (OVCAR-3 ovarian): > 100 µM
- TGI (LXFL 529 NSCLC): > 100 µM
- TGI (SNB-19 CNS): > 100 µM
- TGI (DMS 114 small cell lung): > 100 µM
- TGI (ACHN renal): > 100 µM
- TGI (NCI-H522 lung): > 100 µM
- TGI (RXF 393 renal): > 100 µM
- TGI (SNB-78 CNS): > 100 µM
- TGI (U251 CNS): > 100 µM
- TGI (UACC-257 melanoma): > 100 µM
- TGI (OVCAR-8 ovarian): > 100 µM
- TGI (HCT-15 colon): > 100 µM
- TGI (HCT-116 colon): > 100 µM
- TGI (M19-MEL melanoma): > 100 µM
- TGI (HCC-2998 colon): > 100 µM
